# Measurements reported in BigSolDB 2.1.
structure (smiles),measurement,setting,value
O=C(NC[C@H]1CN(c2ccc(N3CCOCC3=O)cc2)C(=O)O1)c1ccc(Cl)s1,solubility (mole fraction),"in 1,4-dioxane, 288.15 K",0.000132
same,solubility (mole fraction),"in 1,4-dioxane, 293.15 K",0.000158
same,solubility (mole fraction),"in 1,4-dioxane, 298.15 K",0.000189
same,solubility (mole fraction),"in 1,4-dioxane, 303.15 K",0.000224
same,solubility (mole fraction),"in 1,4-dioxane, 308.15 K",0.000265
same,solubility (mole fraction),"in 1,4-dioxane, 313.15 K",0.000311
same,solubility (mole fraction),"in 1,4-dioxane, 318.15 K",0.000363
same,solubility (mole fraction),"in 1,4-dioxane, 323.15 K",0.000422
same,solubility (mole fraction),"in 1,4-dioxane, 328.15 K",0.000488
same,solubility (mole fraction),"in 1,4-dioxane, 333.15 K",0.000562
same,solubility (mole fraction),"in 2-butanone, 273.15 K",3.47e-05
same,solubility (mole fraction),"in 2-butanone, 278.15 K",4.55e-05
same,solubility (mole fraction),"in 2-butanone, 283.15 K",5.9e-05
same,solubility (mole fraction),"in 2-butanone, 288.15 K",7.59e-05
same,solubility (mole fraction),"in 2-butanone, 293.15 K",9.67e-05
same,solubility (mole fraction),"in 2-butanone, 298.15 K",0.000122
same,solubility (mole fraction),"in 2-butanone, 303.15 K",0.000153
same,solubility (mole fraction),"in 2-butanone, 308.15 K",0.000191
same,solubility (mole fraction),"in 2-butanone, 313.15 K",0.000236
same,solubility (mole fraction),"in 2-butanone, 318.15 K",0.00029
same,solubility (mole fraction),"in 2-hexanone, 273.15 K",1.78e-05
same,solubility (mole fraction),"in 2-hexanone, 278.15 K",2.24e-05
same,solubility (mole fraction),"in 2-hexanone, 283.15 K",2.79e-05
same,solubility (mole fraction),"in 2-hexanone, 288.15 K",3.45e-05
same,solubility (mole fraction),"in 2-hexanone, 293.15 K",4.24e-05
same,solubility (mole fraction),"in 2-hexanone, 298.15 K",5.17e-05
same,solubility (mole fraction),"in 2-hexanone, 303.15 K",6.27e-05
same,solubility (mole fraction),"in 2-hexanone, 308.15 K",7.54e-05
same,solubility (mole fraction),"in 2-hexanone, 313.15 K",9.03e-05
same,solubility (mole fraction),"in 2-hexanone, 318.15 K",0.000107
same,solubility (mole fraction),"in 3-pentanone, 273.15 K",2.43e-05
same,solubility (mole fraction),"in 3-pentanone, 278.15 K",3.11e-05
same,solubility (mole fraction),"in 3-pentanone, 283.15 K",3.94e-05
same,solubility (mole fraction),"in 3-pentanone, 288.15 K",4.95e-05
same,solubility (mole fraction),"in 3-pentanone, 293.15 K",6.17e-05
same,solubility (mole fraction),"in 3-pentanone, 298.15 K",7.64e-05
same,solubility (mole fraction),"in 3-pentanone, 303.15 K",9.39e-05
same,solubility (mole fraction),"in 3-pentanone, 308.15 K",0.000115
same,solubility (mole fraction),"in 3-pentanone, 313.15 K",0.000139
same,solubility (mole fraction),"in 3-pentanone, 318.15 K",0.000168
same,solubility (mole fraction),"in acetone, 273.15 K",4.06e-05
same,solubility (mole fraction),"in acetone, 278.15 K",5.29e-05
same,solubility (mole fraction),"in acetone, 283.15 K",6.83e-05
same,solubility (mole fraction),"in acetone, 288.15 K",8.74e-05
same,solubility (mole fraction),"in acetone, 293.15 K",0.000111
same,solubility (mole fraction),"in acetone, 298.15 K",0.00014
same,solubility (mole fraction),"in acetone, 303.15 K",0.000175
same,solubility (mole fraction),"in acetone, 308.15 K",0.000216
same,solubility (mole fraction),"in acetone, 313.15 K",0.000267
same,solubility (mole fraction),"in acetone, 318.15 K",0.000326
same,solubility (mole fraction),"in acetonitrile, 273.15 K",4.82e-05
same,solubility (mole fraction),"in acetonitrile, 278.15 K",6.11e-05
same,solubility (mole fraction),"in acetonitrile, 283.15 K",7.68e-05
same,solubility (mole fraction),"in acetonitrile, 288.15 K",9.58e-05
same,solubility (mole fraction),"in acetonitrile, 293.15 K",0.000119
same,solubility (mole fraction),"in acetonitrile, 298.15 K",0.000146
same,solubility (mole fraction),"in acetonitrile, 303.15 K",0.000178
same,solubility (mole fraction),"in acetonitrile, 308.15 K",0.000216
same,solubility (mole fraction),"in acetonitrile, 313.15 K",0.00026
same,solubility (mole fraction),"in acetonitrile, 318.15 K",0.000312
same,solubility (mole fraction),"in methyl acetate, 273.15 K",3.2e-05
same,solubility (mole fraction),"in methyl acetate, 278.15 K",4.05e-05
same,solubility (mole fraction),"in methyl acetate, 283.15 K",5.07e-05
same,solubility (mole fraction),"in methyl acetate, 288.15 K",6.31e-05
same,solubility (mole fraction),"in methyl acetate, 293.15 K",7.79e-05
same,solubility (mole fraction),"in methyl acetate, 298.15 K",9.54e-05
same,solubility (mole fraction),"in methyl acetate, 303.15 K",0.000116
same,solubility (mole fraction),"in methyl acetate, 308.15 K",0.000141
same,solubility (mole fraction),"in methyl acetate, 313.15 K",0.000169
same,solubility (mole fraction),"in methyl acetate, 318.15 K",0.000202
